Data set [1] deals with T1, OX2R (Homo sapiens, UniProt O43614).
T1 sequence (O43614 1-444): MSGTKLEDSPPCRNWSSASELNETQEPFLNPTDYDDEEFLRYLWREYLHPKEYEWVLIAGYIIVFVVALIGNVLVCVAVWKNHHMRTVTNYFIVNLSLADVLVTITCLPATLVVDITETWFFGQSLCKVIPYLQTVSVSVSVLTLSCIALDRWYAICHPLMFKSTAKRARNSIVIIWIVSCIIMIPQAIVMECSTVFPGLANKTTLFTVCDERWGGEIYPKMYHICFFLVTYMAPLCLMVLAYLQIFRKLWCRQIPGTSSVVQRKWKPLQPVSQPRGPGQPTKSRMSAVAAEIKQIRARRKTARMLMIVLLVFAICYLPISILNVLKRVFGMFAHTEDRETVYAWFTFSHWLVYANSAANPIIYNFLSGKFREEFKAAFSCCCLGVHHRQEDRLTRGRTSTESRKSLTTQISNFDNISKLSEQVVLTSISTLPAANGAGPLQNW
To be noted: cited from earlier work.

Data set [2] has as its target T1, OX2R. Nature of the data set: OX2R potency as described in WO2016/034882. To be noted: read-out: OX2R IC50 (corresponds to pIC50) (converted).
The target in a further data set is T2, OX1R (Homo sapiens, UniProt O43613).
T2 sequence (O43613 1-425): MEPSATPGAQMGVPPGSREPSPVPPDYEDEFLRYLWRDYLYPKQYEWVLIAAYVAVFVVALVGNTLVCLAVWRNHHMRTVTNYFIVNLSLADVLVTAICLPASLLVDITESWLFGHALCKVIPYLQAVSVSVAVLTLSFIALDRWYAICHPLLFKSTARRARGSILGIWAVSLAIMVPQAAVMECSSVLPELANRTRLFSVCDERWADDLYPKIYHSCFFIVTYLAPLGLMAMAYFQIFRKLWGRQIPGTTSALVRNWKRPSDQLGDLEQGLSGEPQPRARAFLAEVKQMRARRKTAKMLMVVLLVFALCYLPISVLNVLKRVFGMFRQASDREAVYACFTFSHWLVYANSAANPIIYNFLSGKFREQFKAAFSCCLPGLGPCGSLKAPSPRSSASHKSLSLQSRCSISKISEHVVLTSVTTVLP
Nature of the data set: OX1R potency as described in WO2016/034882. To be noted: for IC50: read-out: OX1R IC50 (corresponds to pIC50) (converted).

The next data set deals with T3, human Orexin 1 receptor (Homo sapiens, UniProt O43613).
T3 construct: stably expressing the full-length human Orexin 1 receptor; expressed in transfected cells; host or cells: CHO-K1 (CHO-K1/hOX1), co-expressing aequorin
T3 sequence (O43613 1-425): T2 sequence (O43613 1-425)
The data set is described as follows: Assay A: OX1R IP1 (in vitro OX1R potency). As to conditions: for Kb: Table 3. The data set is classed as cell-based.

A further data set addresses T4, human orexin 2 receptor (Homo sapiens, UniProt O43614).
T4 construct: stably expressing the full-length human orexin 2 receptor; expressed in transfected cells; host or cells: CHO-K1 (CHO-K1/hOX2), co-expressing aequorin
T4 sequence (O43614 1-444): T1 sequence (O43614 1-444)
Nature of the data set: Assay B: OX2R IP1 (in vitro OX2R potency). The data set is classed as cell-based. As to conditions: Table 3; 0.5 nM Orexin A concentration. The text has this:
Activation of the orexin receptors expressed in cell lines results in an increase in intracellular IP3 concentration. IP1, a downstream metabolite of IP3, accumulates in cells following receptor activation and is stable in the presence of LiCl. Using Homogeneous Time-Resolved Fluorescence technology with Lumi4-Tb cryptate (commercially available from Cisbio Bioassay.) and a suitable fluorescence plate reader. This functional response is detectable and quantifiable as described in Trinquet et al. Anal. […] Curr. Chem. Genomics 2009, 3, 22-32. This technique is used to characterize pharmacological modification of the orexin receptors. B. In Vitro Testing of OX2R Potency: OX2R IP1 IP1 measurements are performed in CHO-K1 cells stably expressing the full-length human orexin 2 receptor and the aequorin photoprotein. Cells are cultivated in Ham's nutrient mixture F12 medium with 10% fetal calf serum, in a 37° C., 95% humidity and 5% CO2 incubator. The CHO-K1/hOX2 cell mass is expanded to larger cell numbers. The cells are obtained as frozen cells in cryo-vials and stored until use at -150° C. The viability of the cells after thawing is >90%. In preparation for the assay, 24 hours before the assay, the cells are thawed at 37° C. and immediately diluted with cell culture medium. After centrifugation, the cell pellet is resuspended in medium and then distributed into the assay plates with a density of 5000 cells/25 μL per well. The plates are incubated for one hour at room temperature to reduce edge effects before they are incubated for 24 hours at 37° C./5% CO2. […] On the day of the assay, cells in the plate are washed twice with 60 μL assay buffer (20 μL buffer remained in the wells after washing), followed by adding 5 μL per well of compounds diluted in assay buffer. […] The assay plate is incubated for 60 minutes at 37° C. Then 5 μL per well of Anti-IP1-Cryptate Tb solution and 5 μL per well of IP1-d2 dilution are added to all well of the plate and the plate is incubated for a further 60 minutes light protected at room temperature. […] The ratio between the emission at 665 nm and 615 is calculated by the reader. […] AssayExplorer (Accelrys). In order to establish an agonist concentration independent parameter, Kb values are calculated using the following equation: […] Sci. 1993, 14(4), 110-112).

Data set [3] is described as follows: Assay C: Human MST t1/2 (stability in human liver microsomes). The class given is in vitro ADME. To be noted: human liver microsomes. (Liver microsomes are vesicles of endoplasmic reticulum, rich in cytochrome P450 enzymes.)

Like-named read-outs stand apart in the source and are kept apart here. Bounds are passed on as bounds.

With `CC[C@@H](CNc1ncc(C(F)(F)F)cn1)N(C)C(=O)c1nc(C)ccc1-n1nccn1` [Ex 46 in WO2016/ 034882], the “OX2R pIC50” value on OX2R [1] (Table 2 of WO2016/034882) and on OX2R [1] (Table 3 of WO2016/034882) was less than 5.0 throughout. For the same compound, the IC50 is 7.8 µM at OX2R [2] (Table 1 of WO2016/034882), not below 10 µM on OX2R [2] (Table 3 of WO2016/034882), 0.032 µM at OX1R (Table 2 of WO2016/034882) and 0.0032 µM at OX1R (Table 3 of WO2016/034882). The “OX2R IC50/OX1R IC50” value is 390 at OX1R (Table 1 of WO2016/034882), more than 312 on OX1R (Table 2 of WO2016/034882) and 3200 at OX1R (Table 3 of WO2016/034882).

`CC[C@@H](CNc1cnc(C(F)(F)F)cn1)N(CC)C(=O)c1nc(C)ccc1-n1nccn1` [Ex 70 in WO2016/ 034882]: the IC50 at OX2R [2] (Table 3 of WO2016/034882) was more than 5 µM; on OX1R (Table 3 of WO2016/034882), 0.0016 µM. For the same compound, the “OX2R Kb/OX1R Kb” value on human Orexin 1 receptor was found to be 319. This compound showed a Kb on human Orexin 1 receptor (Orexin A concentration 50 nM) of 0.000135 µM.

On to `CC[C@@H](CNc1ncc(C(F)(F)F)cn1)N(CC)C(=O)c1nc(C)ccc1-n1nccn1` [Ex 73 in WO2016/ 034882], for which the “OX2R pIC50” value at OX2R [1] (Table 3 of WO2016/034882) is recorded as less than 6.0.

Take `CCN(C(=O)c1cc(F)cnc1-c1nnc(C)o1)[C@@H](C)COc1ccc(C(F)(F)F)cn1` [Example 59]: the Kb stood at 6.64 µM at human orexin 2 receptor and 0.031 µM on human Orexin 1 receptor (Orexin A concentration 0.5 nM). Also, in data set [3], the half-life was more than 2.17 h. Also, the “OX2R Kb/OX1R Kb” value on human Orexin 1 receptor was found to be 214.

`CCN(C(=O)c1ccc(C)nc1-n1nccn1)[C@@H](C)COc1ncc(C(F)(F)F)cc1F` [Example 60]: the Kb at human orexin 2 receptor worked out at 0.882 µM; on human Orexin 1 receptor (Orexin A concentration 0.5 nM), 0.00067 µM; at human Orexin 1 receptor (Orexin A concentration 50 nM), 0.00066 µM. The compound further yielded a half-life in data set [3] of more than 2.17 h.

Consider `CCN(C(=O)c1cccnc1-n1nccn1)[C@@H](C)COc1ccc(C(F)(F)F)cn1` [Example 61], for which the Kb at human orexin 2 receptor turned out to be 0.678 µM; at human Orexin 1 receptor (Orexin A concentration 0.5 nM) it was 0.00231 µM. The half-life in data set [3] was more than 2.17 h. The “OX2R Kb/OX1R Kb” value on human Orexin 1 receptor came out at 294.

With `CCN(C(=O)c1ncc(C)cc1-n1cccn1)[C@@H](C)COc1ccc(C(F)(F)F)cn1` [Example 64], the Kb at human orexin 2 receptor amounted to 0.275 µM; on human Orexin 1 receptor (Orexin A concentration 50 nM) it was 0.0004 µM. In data set [3], this compound registered a half-life of 0.333 h. Also, the “OX2R Kb/OX1R Kb” value on human Orexin 1 receptor is reported as 688.

Take `CCN(C(=O)c1cnccc1-n1cccn1)[C@@H](C)COc1ccc(C(F)(F)F)cn1` [Example 69]: the Kb is 0.305 µM on human orexin 2 receptor and 0.0022 µM at human Orexin 1 receptor (Orexin A concentration 0.5 nM). Besides, the half-life in data set [3] was 0.217 h. Besides, at human Orexin 1 receptor, the “OX2R Kb/OX1R Kb” value was determined as 139.

`CCN(C(=O)c1cc(F)cnc1-c1ncccn1)[C@@H](C)COc1ccc(C(F)(F)F)cn1` [Example 70]: the Kb worked out at 1.04 µM at human orexin 2 receptor and 0.0015 µM at human Orexin 1 receptor (Orexin A concentration 0.5 nM). In addition, the half-life in data set [3] is more than 2.17 h. Besides, on human Orexin 1 receptor, the “OX2R Kb/OX1R Kb” value was determined as 691.

Take `CCN(C(=O)c1ncccc1-n1nccn1)[C@@H](C)COc1ccc(Cl)cn1` [Example 71]: the Kb at human orexin 2 receptor is 0.339 µM; at human Orexin 1 receptor (Orexin A concentration 0.5 nM), 0.003 µM. Also, in data set [3], the half-life was determined as 1.05 h. Besides, the “OX2R Kb/OX1R Kb” value at human Orexin 1 receptor is recorded as 113.

As to `CCN(C(=O)c1cc(Cl)cnc1-n1nccn1)[C@@H](C)COc1ccc(C(F)(F)F)cn1` [Example 72], the Kb came to 0.25 µM on human orexin 2 receptor, 0.00037 µM on human Orexin 1 receptor (Orexin A concentration 0.5 nM) and 0.00024 µM on human Orexin 1 receptor (Orexin A concentration 50 nM). This compound also showed a half-life in data set [3] of more than 2.17 h.

For orientation: IC50 means the concentration at which inhibition is half-maximal. What is called half-life is how long it takes for the measured level to halve. A lower half-life goes with rapid decline.

The values above are taken from patent publication US10738031B2, “N-[(heteroaryloxy)propanyl]heteroaryl carboxamides as antagonists of orexin subtype 1 receptor activity” (Boehringer Ingelheim International GmbH, priority 2016, dated 2020).
